Reference: patent publication US10351575B2, “Bicyclic urea, thiourea, guanidine and cyanoguanidine compounds useful for the treatment of pain” (Array BioPharma Inc., priority 2012, dated 2019)

Tests used:
Experiment in all cases: KinaseProfiler off-target kinase profiling
Assay type in all cases: biochemical
Conditions in all cases: 10 μM, ATP near Km
LOK = LOK (Homo sapiens (Human), UniProt O94804)
In short: (§1)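 ATP was held near each kinase's Km while compound was present at 10 μM. Runs were done twice, and values are the average percent of control.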

p38beta = p38beta (Homo sapiens (Human), UniProt Q15759)
In short: as §1

DAPK3 = DAPK3 (Homo sapiens (Human), UniProt O43293)
In short: as §1

FAK = FAK (Homo sapiens (Human), UniProt Q05397)
In short: as §1

GRK5 = GRK5 (Homo sapiens (Human), UniProt P34947)
In short: as §1

CK1gamma2 = CK1gamma2 (Homo sapiens (Human), UniProt P78368)
In short: as §1

DRAK1 = DRAK1 (Homo sapiens (Human), UniProt Q9UEE5)
In short: as §1

KDR = KDR (Homo sapiens (Human), UniProt P35968)
In short: as §1

AURKA = AURKA (Homo sapiens (Human), UniProt O14965)
In short: as §1

PKCbetaII = PKCbetaII (Homo sapiens (Human), UniProt P05771)
In short: as §1

ULK3 = ULK3 (Homo sapiens (Human), UniProt Q6PHR2)
In short: as §1

Lyn = Lyn (Homo sapiens (Human), UniProt P07948)
In short: as §1

MuSK = MuSK (Homo sapiens (Human), UniProt O15146)
In short: as §1

AKT3 = AKT3 (Homo sapiens (Human), UniProt Q9Y243)
In short: as §1

IRAK1 = IRAK1 (Homo sapiens (Human), UniProt P51617)
In short: as §1

MKNK2 = MKNK2 (Homo sapiens (Human), UniProt Q9HBH9)
In short: as §1

LIMK1 = LIMK1 (Homo sapiens (Human), UniProt P53667)
In short: as §1

p38delta = p38delta (Homo sapiens (Human), UniProt O15264)
In short: as §1

IGF-1R = IGF-1R (Homo sapiens (Human), UniProt P08069)
In short: as §1

EphB4 = EphB4 (Homo sapiens (Human), UniProt P54760)
In short: as §1

TLK2 = TLK2 (Homo sapiens (Human), UniProt Q86UE8)
In short: as §1

MEK1 = MEK1 (Homo sapiens (Human), UniProt Q02750)
In short: as §1

SGK1 = SGK1 (Homo sapiens (Human), UniProt O00141)
In short: as §1

SIK = SIK (Homo sapiens (Human), UniProt P57059)
In short: as §1

CDK2/cyclinA = CDK2/cyclinA (Homo sapiens (Human), UniProt P24941)
In short: as §1

PKCepsilon = PKCepsilon (Homo sapiens (Human), UniProt Q02156)
In short: as §1

Met = Met (Homo sapiens (Human), UniProt P08581)
In short: as §1

WNK3 = WNK3 (Homo sapiens (Human), UniProt Q9BYP7)
In short: as §1

PTK5 = PTK5 (Homo sapiens (Human), UniProt P42685)
In short: as §1

Haspin = Haspin (Homo sapiens (Human), UniProt Q8TF76)
In short: as §1

ARK5 = ARK5 (Homo sapiens (Human), UniProt O60285)
In short: as §1

CAMK2b = CAMK2b (Homo sapiens (Human), UniProt Q13554)
In short: as §1

TAK1 = TAK1 (Homo sapiens (Human), UniProt O43318)
In short: as §1

MAP4K2 = MAP4K2 (Homo sapiens (Human), UniProt Q12851)
In short: as §1

LOK, sequence (O94804 whole entry): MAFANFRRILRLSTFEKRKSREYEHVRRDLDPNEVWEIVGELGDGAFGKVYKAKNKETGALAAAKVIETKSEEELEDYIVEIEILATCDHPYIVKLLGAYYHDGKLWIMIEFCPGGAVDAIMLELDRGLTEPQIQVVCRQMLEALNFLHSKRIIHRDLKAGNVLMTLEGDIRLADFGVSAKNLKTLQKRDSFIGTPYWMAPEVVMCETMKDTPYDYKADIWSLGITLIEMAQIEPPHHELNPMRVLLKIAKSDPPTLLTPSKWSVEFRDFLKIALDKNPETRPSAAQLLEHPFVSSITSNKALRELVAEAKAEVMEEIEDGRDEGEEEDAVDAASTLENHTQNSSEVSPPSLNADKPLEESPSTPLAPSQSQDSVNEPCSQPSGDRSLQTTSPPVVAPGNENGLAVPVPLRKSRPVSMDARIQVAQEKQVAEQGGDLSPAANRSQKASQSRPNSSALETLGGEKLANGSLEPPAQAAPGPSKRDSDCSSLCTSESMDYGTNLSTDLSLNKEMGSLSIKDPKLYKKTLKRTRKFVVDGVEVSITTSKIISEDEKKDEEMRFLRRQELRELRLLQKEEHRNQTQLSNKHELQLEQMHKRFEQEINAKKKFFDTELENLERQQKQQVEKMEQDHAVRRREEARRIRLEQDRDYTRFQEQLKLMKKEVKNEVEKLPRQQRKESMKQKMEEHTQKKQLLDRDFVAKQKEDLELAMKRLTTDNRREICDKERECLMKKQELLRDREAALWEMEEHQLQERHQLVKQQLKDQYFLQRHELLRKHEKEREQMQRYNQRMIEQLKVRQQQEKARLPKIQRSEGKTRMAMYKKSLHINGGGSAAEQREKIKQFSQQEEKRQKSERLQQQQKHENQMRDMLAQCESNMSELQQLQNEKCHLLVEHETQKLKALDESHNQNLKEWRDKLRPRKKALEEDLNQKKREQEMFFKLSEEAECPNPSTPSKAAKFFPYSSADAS
PKCepsilon, sequence (Q02156 whole entry): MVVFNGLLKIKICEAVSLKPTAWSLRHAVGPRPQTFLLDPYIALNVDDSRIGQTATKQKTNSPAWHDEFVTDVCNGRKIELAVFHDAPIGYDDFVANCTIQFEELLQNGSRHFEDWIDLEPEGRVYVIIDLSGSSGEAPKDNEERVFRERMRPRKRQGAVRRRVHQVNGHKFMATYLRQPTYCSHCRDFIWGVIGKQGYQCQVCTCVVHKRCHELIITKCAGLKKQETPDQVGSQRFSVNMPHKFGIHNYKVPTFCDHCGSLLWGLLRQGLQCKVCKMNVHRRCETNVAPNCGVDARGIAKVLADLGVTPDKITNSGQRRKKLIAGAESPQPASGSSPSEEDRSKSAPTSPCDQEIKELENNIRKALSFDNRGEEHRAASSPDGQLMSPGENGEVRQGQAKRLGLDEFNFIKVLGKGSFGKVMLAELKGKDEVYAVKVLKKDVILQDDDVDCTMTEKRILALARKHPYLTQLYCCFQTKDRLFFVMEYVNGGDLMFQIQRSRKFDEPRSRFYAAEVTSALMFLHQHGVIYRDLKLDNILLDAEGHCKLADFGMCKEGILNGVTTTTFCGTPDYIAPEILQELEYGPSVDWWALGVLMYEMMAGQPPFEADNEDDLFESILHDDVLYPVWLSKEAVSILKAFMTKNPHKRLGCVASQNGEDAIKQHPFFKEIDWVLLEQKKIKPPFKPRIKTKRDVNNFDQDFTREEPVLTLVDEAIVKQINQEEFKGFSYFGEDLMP
FAK, sequence (Q05397 whole entry): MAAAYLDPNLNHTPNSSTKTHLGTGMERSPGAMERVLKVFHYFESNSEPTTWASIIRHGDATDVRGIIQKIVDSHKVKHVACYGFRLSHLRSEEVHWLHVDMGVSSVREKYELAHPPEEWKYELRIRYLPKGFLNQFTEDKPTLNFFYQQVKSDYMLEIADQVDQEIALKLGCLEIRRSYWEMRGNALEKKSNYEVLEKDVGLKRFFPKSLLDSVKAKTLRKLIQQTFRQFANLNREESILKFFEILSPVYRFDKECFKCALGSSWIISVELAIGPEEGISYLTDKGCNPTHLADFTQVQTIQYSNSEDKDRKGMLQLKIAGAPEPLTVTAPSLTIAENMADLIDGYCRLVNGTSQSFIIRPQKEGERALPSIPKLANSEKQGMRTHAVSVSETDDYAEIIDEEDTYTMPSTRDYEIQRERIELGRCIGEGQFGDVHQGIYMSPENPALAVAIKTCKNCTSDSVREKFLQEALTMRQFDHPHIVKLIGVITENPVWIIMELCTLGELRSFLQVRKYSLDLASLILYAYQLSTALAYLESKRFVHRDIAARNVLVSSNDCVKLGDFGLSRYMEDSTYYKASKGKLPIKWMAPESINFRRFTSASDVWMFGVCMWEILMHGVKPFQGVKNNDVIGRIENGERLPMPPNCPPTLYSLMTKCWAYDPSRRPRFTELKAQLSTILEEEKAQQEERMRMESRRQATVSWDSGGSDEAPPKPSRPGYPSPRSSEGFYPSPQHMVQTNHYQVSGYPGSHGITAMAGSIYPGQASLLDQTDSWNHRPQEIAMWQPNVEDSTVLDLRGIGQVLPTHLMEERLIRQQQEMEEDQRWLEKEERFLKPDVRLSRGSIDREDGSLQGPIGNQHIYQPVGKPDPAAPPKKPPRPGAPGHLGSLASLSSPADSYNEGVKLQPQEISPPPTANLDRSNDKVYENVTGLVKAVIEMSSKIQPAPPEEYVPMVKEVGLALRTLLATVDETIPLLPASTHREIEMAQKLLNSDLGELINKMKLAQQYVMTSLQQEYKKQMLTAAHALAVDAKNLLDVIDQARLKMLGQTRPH
MAP4K2, sequence (Q12851 whole entry): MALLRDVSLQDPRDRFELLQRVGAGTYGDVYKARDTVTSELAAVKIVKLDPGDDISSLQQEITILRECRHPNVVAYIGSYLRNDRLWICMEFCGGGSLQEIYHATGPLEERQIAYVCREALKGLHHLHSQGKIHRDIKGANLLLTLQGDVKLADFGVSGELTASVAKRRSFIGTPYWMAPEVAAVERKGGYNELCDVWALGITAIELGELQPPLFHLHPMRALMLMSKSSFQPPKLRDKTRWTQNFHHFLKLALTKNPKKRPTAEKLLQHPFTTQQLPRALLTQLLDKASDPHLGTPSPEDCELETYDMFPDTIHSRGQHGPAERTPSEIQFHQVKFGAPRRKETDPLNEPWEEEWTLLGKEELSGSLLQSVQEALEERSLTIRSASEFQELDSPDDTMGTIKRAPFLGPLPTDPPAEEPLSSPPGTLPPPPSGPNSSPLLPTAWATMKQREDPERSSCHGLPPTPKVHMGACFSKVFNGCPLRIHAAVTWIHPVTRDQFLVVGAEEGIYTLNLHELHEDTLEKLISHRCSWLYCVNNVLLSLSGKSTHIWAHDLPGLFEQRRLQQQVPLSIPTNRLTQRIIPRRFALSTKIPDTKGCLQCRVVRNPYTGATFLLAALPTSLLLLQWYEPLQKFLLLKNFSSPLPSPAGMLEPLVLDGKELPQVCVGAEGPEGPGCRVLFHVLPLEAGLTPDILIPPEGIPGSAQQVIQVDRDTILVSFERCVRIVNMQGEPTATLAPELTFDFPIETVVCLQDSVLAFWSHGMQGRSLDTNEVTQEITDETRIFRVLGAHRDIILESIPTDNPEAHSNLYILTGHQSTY
MEK1, sequence (Q02750 whole entry): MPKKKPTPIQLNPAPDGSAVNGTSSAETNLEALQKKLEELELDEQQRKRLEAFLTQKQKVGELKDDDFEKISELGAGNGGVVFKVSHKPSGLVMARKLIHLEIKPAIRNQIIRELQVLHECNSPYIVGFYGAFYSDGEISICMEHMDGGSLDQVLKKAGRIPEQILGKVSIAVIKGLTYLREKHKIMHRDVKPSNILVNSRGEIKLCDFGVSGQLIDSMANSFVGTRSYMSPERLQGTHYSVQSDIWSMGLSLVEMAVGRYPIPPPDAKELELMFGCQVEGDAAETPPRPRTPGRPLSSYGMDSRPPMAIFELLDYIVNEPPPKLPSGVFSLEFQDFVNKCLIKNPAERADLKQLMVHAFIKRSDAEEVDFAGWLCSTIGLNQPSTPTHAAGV
TLK2, sequence (Q86UE8 whole entry): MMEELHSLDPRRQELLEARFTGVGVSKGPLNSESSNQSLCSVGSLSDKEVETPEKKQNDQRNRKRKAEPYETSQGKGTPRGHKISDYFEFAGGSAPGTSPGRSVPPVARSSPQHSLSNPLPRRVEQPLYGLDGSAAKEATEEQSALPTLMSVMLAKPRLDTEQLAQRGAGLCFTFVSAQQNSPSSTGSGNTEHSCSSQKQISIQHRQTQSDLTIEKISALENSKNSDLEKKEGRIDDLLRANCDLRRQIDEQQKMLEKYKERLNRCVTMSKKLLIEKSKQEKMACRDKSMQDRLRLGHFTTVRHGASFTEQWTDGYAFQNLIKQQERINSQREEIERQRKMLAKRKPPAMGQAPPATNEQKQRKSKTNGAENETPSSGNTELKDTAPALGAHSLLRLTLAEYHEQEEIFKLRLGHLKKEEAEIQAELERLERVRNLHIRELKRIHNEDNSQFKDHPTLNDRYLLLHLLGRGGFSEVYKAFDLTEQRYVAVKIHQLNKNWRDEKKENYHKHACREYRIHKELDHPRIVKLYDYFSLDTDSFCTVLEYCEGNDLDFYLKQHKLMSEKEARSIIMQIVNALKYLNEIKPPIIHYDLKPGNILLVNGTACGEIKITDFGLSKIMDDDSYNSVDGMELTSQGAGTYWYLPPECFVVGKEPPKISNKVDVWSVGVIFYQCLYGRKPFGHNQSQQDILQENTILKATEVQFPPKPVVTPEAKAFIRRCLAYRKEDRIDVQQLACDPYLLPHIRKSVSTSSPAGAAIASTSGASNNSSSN

SMILES	Avg. POC (LOK) [POC]	Avg. POC (p38beta) [POC]	Avg. POC (DAPK3) [POC]	Avg. POC (FAK) [POC]	Avg. POC (GRK5) [POC]	Avg. POC (CK1gamma2) [POC]	Avg. POC (DRAK1) [POC]	Avg. POC (KDR) [POC]	Avg. POC (AURKA) [POC]	Avg. POC (PKCbetaII) [POC]	Avg. POC (ULK3) [POC]	Avg. POC (Lyn) [POC]	Avg. POC (MuSK) [POC]	Avg. POC (AKT3) [POC]	Avg. POC (IRAK1) [POC]	Avg. POC (MKNK2) [POC]	Avg. POC (LIMK1) [POC]	Avg. POC (p38delta) [POC]	Avg. POC (IGF-1R) [POC]	Avg. POC (EphB4) [POC]	further results
COCc1ccc2c(c1)C(NC(=O)Nc1c(C)c(-c3cnn(C)c3)nn1-c1ccccc1)COC2 (centres unmarked) [Example 32, 1-(1′,4-dimethyl-1-phenyl-1H,1′H-[3,4′-bipyrazol]-5-yl)-3-(6-(methoxymethyl)isochroman-4-yl)urea]	103.5	119	111	116.5	90	101.5	105.5	129	112.5	100.5	92	106.5	104.5	77.5	113.5	99.5	95	113.5	84.5	106	Avg. POC (TLK2): 92 POC; Avg. POC (MEK1): 102 POC; Avg. POC (SGK1): 119 POC; Avg. POC (SIK): 97 POC; Avg. POC (CDK2/cyclinA): 118 POC; Avg. POC (PKCepsilon): 97.5 POC; Avg. POC (Met): 118.5 POC; Avg. POC (WNK3): 103.5 POC; Avg. POC (PTK5): 104 POC; Avg. POC (Haspin): 94 POC; Avg. POC (ARK5): 118.5 POC; Avg. POC (CAMK2b): 102.5 POC; Avg. POC (TAK1): 99.5 POC; Avg. POC (MAP4K2): 119.5 POC
Cc1c(-c2ccc(=O)n(C)c2)nn(-c2ccccc2)c1NC(=O)NC1CN(CC(F)(F)F)Cc2ccccc21 (centres unmarked) [Example 26, 1-(4-methyl-3-(1-methyl-6-oxo-1,6-dihydropyridin-3-yl)-1-phenyl-1H-pyrazol-5-yl)-3-(2-(2,2,2-trifluoroethyl)-1,2,3,4-tetrahydroisoquinolin-4-yl)urea]	109	115.5	103	105	86	112.5	125	144.5	107.5	99	92.5	110.5	99.5	96	110.5	99.5	102	102	60.5	115	Avg. POC (TLK2): 97 POC; Avg. POC (MEK1): 97 POC; Avg. POC (SGK1): 97.5 POC; Avg. POC (SIK): 121.5 POC; Avg. POC (CDK2/cyclinA): 114.5 POC; Avg. POC (PKCepsilon): 106.5 POC; Avg. POC (Met): 81 POC; Avg. POC (WNK3): 103.5 POC; Avg. POC (PTK5): 110 POC; Avg. POC (Haspin): 92 POC; Avg. POC (ARK5): 100.5 POC; Avg. POC (CAMK2b): 107 POC; Avg. POC (TAK1): 108.5 POC; Avg. POC (MAP4K2): 121 POC
